Patent US20080260850A1, “Delivery System For Bioactive Agents on the Basis of a Polymeric Drug Carrier Comprising an Amphiphilic Block Polymer and a Polylacticacid Derivative” (SAMYANG CORPORATION, priority 2004, published 2008)

Key:
[1] = tested on: MES-SA/Dx-5 (doxorubicin-resistant cell line); experiment: Intracellular uptake, flow cytometry (FACS); format: cell-based, human; details: MES-SA/Dx-5, 1.0 μg/ml
Protocol: (§1) The flow cytometry study was performed with the FACStarPlus (Becton Dickinson) according to the method of Walker et al. (Experimental Cell Research 207: 142 (1993)). Briefly, cells (1.0×10^6) were incubated in McCoy's 5A medium (Invitrogen Corp.) supplemented with 10% fetal bovine serum and 1% penicillin streptomycin. After a 24-hour incubation period, the cells were treated with the drug composition at a dose of 1.0 μg/ml.

[2] = tested on: MES-SA (doxorubicin-sensitive cell line); experiment: Intracellular uptake, flow cytometry (FACS); format: cell-based, human; details: 1.0 μg/ml
Protocol: as §1

[3] = rat, in vivo, iv, 5 mg/kg
Protocol: The rats (5 rats for each formulation) were injected intravenously through the tail vein at a dose of 5 mg/kg. The blood samples were collected from the tail vein at 1, 5, 15, 30 minutes and 1, 2, 4, 8, and 24 hours after the drug injection. The blood samples were immediately centrifuged, and the plasma was separated. The plasma samples were stored at −50° C. until analysis. Doxorubicin was analyzed by HPLC assay described in example 1.

[4] = tested on: MES-SA/Dx-5 (doxorubicin-resistant cell line); experiment: In vitro cytotoxicity, MTT assay; format: cell-based
Protocol: (§2) MTT assay is well established method for cytotoxicity test. When the cells are treated with MTT (methylthiazoletetrazolium), the MTT-formazan is produced from reduction of MTT-tetrazolium by enzymes present in living cells only (dead cells cannot reduce the MTT-tetrazolium to MTT-formazan). The fluorescence of the MTT-formazan is detected by a fluorescence reader and the optical density correlates with the number of cells.
(§3) The cytotoxic activity of each composition was evaluated in both human tumor cell lines at five ten-fold dilutions ranging from 0.01 to 100 μg/ml. […] The MTT-formazan produced from reduction of MTT-tetrazolium by enzymes present in the living cells was detected by a fluorescence reader. The optical density correlates with the number of cells. […] The MTT assay was performed essentially according to the method of Carmichael et al. (Cancer Research 47: 936 (1987)). Briefly, cells were harvested from an exponential phase culture growing in McCoy's 5A medium (Invitrogen Corp.) supplemented with 10% fetal bovine serum and 1% penicillin streptomycin, counted and plated in 96 well flat-bottomed microtiter plates (100 cell suspension, 5×10^4 cells/ml for each cell line). After a 24 h recovery to allow the cells to resume exponential growth, a culture medium (24 control wells per plate) or culture medium containing drug was added to the wells. Each drug concentration was plated in triplicate. […] Fluorescence was measured using an automatic microplate reader (SpectraMax 190, Molecular Devices) at a wavelength of 549 nm, and the number of viable cells was calculated from the optical density.

[5] = tested on: MES-SA (doxorubicin-sensitive cell line); experiment: In vitro cytotoxicity, MTT assay; format: cell-based
Protocol: as §2, §3

COc1cccc2c1C(=O)c1c(O)c3c(c(O)c1C2=O)C[C@@](O)(C(=O)CO)C[C@@H]3O[C@H]1C[C@H](N)[C@H](O)[C@H](C)O1.Cl [Free-Dox, doxorubicin hydrochloride]
Change of (Δ) Fluorescence Intensity ([1]; time 0 hr): 0.0
Number of cells(%) which absorbed the drug ([1]; time 0 hr): 1.0%
Change of (Δ) Fluorescence Intensity ([1]; time 1 hr): 2.6
Number of cells(%) which absorbed the drug ([1]; time 1 hr): 1.8%
Change of (Δ) Fluorescence Intensity ([1]; time 4 hr): 7.1
Number of cells(%) which absorbed the drug ([1]; time 4 hr): 3.2%
Change of (Δ) Fluorescence Intensity ([1]; time 8 hr): 9.2
Number of cells(%) which absorbed the drug ([1]; time 8 hr): 5.3%
Change of (Δ) Fluorescence Intensity ([2]; time 0 hr): 0.0
Number of cells(%) which absorbed the drug ([2]; time 0 hr): 1.0%
Change of (Δ) Fluorescence Intensity ([2]; time 1 hr): 7.6
Number of cells(%) which absorbed the drug ([2]; time 1 hr): 4.0%
Change of (Δ) Fluorescence Intensity ([2]; time 4 hr): 20.6
Number of cells(%) which absorbed the drug ([2]; time 4 hr): 11.3%
Change of (Δ) Fluorescence Intensity ([2]; time 8 hr): 40.6
Number of cells(%) which absorbed the drug ([2]; time 8 hr): 35.1%
AUC [3]: 1300 ng·h/mL
MTT Assay IC50 ([4]; MES-SA/Dx-5, time 24 hr): 54.0 µg/mL
MTT Assay IC50 ([4]; MES-SA/Dx-5, time 48 hr): 0.92 µg/mL
MTT Assay IC50 ([4]; MES-SA/Dx-5, time 72 hr): 0.75 µg/mL
MTT Assay IC50 ([5]; time 24 hr): 0.30 µg/mL
MTT Assay IC50 ([5]; time 48 hr): 0.087 µg/mL
MTT Assay IC50 ([5]; time 72 hr): 0.031 µg/mL
